Read-outs that look alike come from different tables or passages of the source. Marks after values point to notes of the source that are not given here.
How the values were obtained:
P. aeruginosa (GRE5288) = assay: Antibacterial activity (growth inhibition, EC50); format: cell-based, Pseudomonas aeruginosa; settings: Pseudomonas aeruginosa
Source text: A.S. Mankin (University of Illinois). E. coli ΔtolC strain BL21 DE3 with impaired AcrAB-TolC, a proton-dependent MDR efflux pump causing multidrug resistance, was offered by Dr D.N. Wilson (University of Munich) and included in our study to test if this mechanism of resistance affects the efficacy of CAM dimers. […] I. Spiliopoulou (National Reference Laboratory for Staphylococci, School of Medicine, University of Patras, Greece). Finally, E. coli strain Rosetta(DE3)pLysS, containing a chloramphenicol resistant gene in the pLysS plasmid, was purchased from Novagen and was also included in our study. Briefly, S. aureus or E. coli cells (200 μl of a 0.700 OD560 preculture) containing wild-type or mutant ribosomes were added in 3.8 ml of LB (Luria-Bertani) medium and grown at 37°C in the presence or absence of CAM or CAM dimers until the optical density of the control culture (grown in the absence of drug) reached the value 0.700 at 560 nm. For E. faecium and P. aeruginosa cultures, TSB (Tryptic Soy Broth) medium was used, instead of LB medium, in order to achieve exponential doubling times between 25 and 35 minutes. From dose-response curves, the half-maximal effective concentration (EC50) for each compound and strain was estimated. EC50 represents the molar concentration of a compound that produces 50% of the maximal possible effect. The EC50 values were mathematically determined by non linear regression fitting of the observed culture optical-density values, expressed as the percentage of 0.700 (y), into Hill Equation, y=min+max−min/1+(x/EC50)^−n where min and max are the lowest and highest observed values of the culture optical density, respectively, x the concentration of the tested compound, and n the Hill coefficient that represents the largest absolute value of the curve slope. EC50 is equal to the x- value of the sigmoid’s midpoint. Fitting was performed using the Four Parameter Logistic Curve of the SigmaPlot Program Version 11.0 (Systat Software, Inc) for Exact Graphs and Data Analysis.

[1] = test system: 70S ribosomes from E. coli (central loop of Domain V of 23S rRNA); assay: Time-resolved footprinting of RI and R*I complexes; format: binding; settings: ratio to control lane R
Source text: The behavior of compound 5 was compared to that of compound 4, which is bearing a flexible linker of the same length. The footprinting analysis exploits the slow-binding character of the dimers and has been successfully applied in studying various slow-binding inhibitors of the PTase. To overcome potential drawbacks resulting from protections caused by natural PTase substrates, naked 70S ribosomes were used instead of complex C. To footprint the RI complex, compounds 4 or 5 used in excess, and ribosomes were incubated at 25°C for 2 s, and then treated with chemical probes for 3 min to modify accessible nucleosides in 23S rRNA. Because the first step of binding, R + I ⇄ RI, equilibrates rapidly while the formation of R*I occurs slowly, the main product formed during such a short time interval was complex RI (>93%). To footprint the R*I complex, each dimer and ribosomes were incubated for 10 min, a time interval that is over than ten half-lives required for the attainment of the steady state. Because the isomerization constant, k on/k off, is at least 2.2 (see Table 1), most of the ribosomes added in the reaction mixture (>70%) were in the form of R*I complex at the end of this time interval.
Chemical modification of complexes RI and R*I with DMS, kethoxal, or CMCT, primer extension analysis, and gel electrophoresis of the primer extension products were performed as previously described. […] Quantitative scanning of the gels, and normalization of the band intensities were made as previously shown. Values indicated in Table 2 denote the ratio between the normalized intensity of a band of interest and the normalized intensity of the corresponding band in the control lane (ribosomes non-treated with CAM or CAM dimers).

[2] = test system: post-translocation ribosomal complex (complex C) derived from E. coli; assay: Inhibition of peptide-bond formation (puromycin reaction, AcPhe-puromycin synthesis); format: biochemical; settings: for Ki: 25°C, buffer A; for k off: nonlinear regression of k eq
Protocol: The inhibitory effect of CAM dimers on peptide-bond formation was studied using the puromycin reaction, a model reaction between puromycin and a post-translocation ribosomal complex (complex C) derived from E. coli. Since puromycin, a pseudo-substrate of PTase which binds to the A-site of the catalytic center, was present in excess, the reaction obeyed first-order kinetics. The first-order rate constant, k obs, at each concentration of puromycin was determined by fitting the x values into Eq 1, ln100/100−x=kobst (1) where x is the product AcPhe-puromycin, expressed as the percentage of complex C added in the reaction mixture, and t is the time of the reaction.
A representative time plot obtained at 400 μM puromycin, in the absence of inhibitor, is illustrated in Fig 3A (upper line) and, as expected, is characterized by linearity. However, when the reaction proceeded in the presence of a CAM dimer, e.g. compound 5, the time plots were characterized by two unique features that distinguish them from a typical kinetic behavior. […] Second, the slopes of both progress curves varied as a function of the inhibitor concentration (Fig 3A, four lower curves). […] These kinetic results are consistent with compound 5 operating through an induced fit mechanism (Fig 3C), in which the inhibitor first binds rapidly to complex C to form the encounter complex CI, which then undergoes a slow conformational change to produce a final, tighter complex C*I. Corroborative evidence for the consistency of this model is provided by the hyperbolic shape of the equilibration plots (k eq versus [I]), in which k eq represents the apparent rate constant for the attainment of equilibrium among C, CI, and C*I (Fig 3B). If one-step mechanism of inhibition was applicable (C + I ⇄ C*I), k eq should be a linear function of [I] [27]. […] Because the isomerization constant k on/k off was calculated to be 3.6, the inhibition process was finally associated with high overall inhibition of peptide-bond formation (Ki* = 0.3 μM; S1 Fig, panel C). In addition, the slow k off rate (0.64 min^-1) provided prolonged residence time for compound 5 at the ribosome, a behavior potentially predicting good efficacy in vivo [28].
The puromycin reaction, i.e. the reaction between complex C and excess puromycin (S), was carried out at 25°C in buffer A [100 mM Tris-HCl pH 7.2, 6 mM (CH3COO)2Mg, 100 mM NH4Cl and 6 mM 2-mercaptoethanol]. Under these conditions, the puromycin reaction obeys C + S ⇄KS CS→kcat C^′ + S pseudo-first-order kinetics and was analyzed as previously described.
In the presence of CAM dimers, biphasic semi-logarithmic time plots were obtained. The slope of the straight line through the origin was seen as the value of the apparent rate constant, k obs(early), at the early phase of the reaction. Similarly, the slope of the second straight line was taken as the apparent rate constant, k obs(late), at the late phase of the puromycin reaction.

[3] = R*I complex (10 min incubation)
[4] = overall inhibition constant (CI + C*I)

SMILES | Relative reactivity of A2058 [1, 3] | Relative reactivity of A2059 ([1]; R*I complex) | Relative reactivity of A2062 ([1]; R*I complex) | Relative reactivity of A2451 ([1]; R*I complex) | Relative reactivity of G2505 ([1]; R*I complex) | Relative reactivity of U2506 ([1]; R*I complex) | Relative reactivity of U2609 ([1]; R*I complex) | Relative reactivity of A2058 ([1]; RI complex (2 s incubation)) | Relative reactivity of A2059 ([1]; RI complex) | Relative reactivity of A2062 ([1]; RI complex) | Relative reactivity of A2451 ([1]; RI complex) | Relative reactivity of G2505 ([1]; RI complex) | Relative reactivity of U2506 ([1]; RI complex) | Relative reactivity of U2609 ([1]; RI complex) | Ki ([2]; encounter complex CI) | k off [2] | Ki [2, 4] | also measured
O=C(CCCCC(=O)N[C@H](CO)[C@H](O)c1ccc([N+](=O)[O-])cc1)N[C@H](CO)[C@H](O)c1ccc([N+](=O)[O-])cc1 [Compound 4, N^1,N^6-Bis((1R,2R)-1,3-dihydroxy-1-(4-nitrophenyl)propan-2-yl)adipamide] | 0.90 ± 0.09 | 0.70 ± 0.07 ^b ^, ^c | 0.67 ± 0.05 ^b ^, ^c | 0.77 ± 0.05 ^b | 0.44 ± 0.03 ^b | 0.70 ± 0.04 ^b | 1.00 ± 0.07 | 0.99 ± 0.07 | 0.94 ± 0.06 | 0.88 ± 0.08 ^b | 0.67 ± 0.04 ^b | 0.43 ± 0.03 ^b | 0.70 ± 0.05 ^b | 1.00 ± 0.10 | 6 ± 0.54 µM | 0.0167 ± 0.00067 s⁻¹ | 1.87 ± 0.15 µM | EC50 (P. aeruginosa (GRE5288)): 72.6 ± 13.7 µM; activity compared to CAM ([2]; ranking by K i*): lower; fold less efficient than compound 5 ([2]; ranking by K i*): 6 fold
O=C(N[C@H](CO)[C@H](O)c1ccc([N+](=O)[O-])cc1)c1ccc(C(=O)N[C@H](CO)[C@H](O)c2ccc([N+](=O)[O-])cc2)cc1 [Compound 5, N^1,N^4-Bis ((1R,2R)-1,3-dihydroxy-1-(4-nitrophenyl)propan-2-yl)-terephthalamide] | 0.32 ± 0.04 ^b ^, ^c | 0.33 ± 0.08 ^b ^, ^c | 0.40 ± 0.09 ^b ^, ^c | 0.41 ± 0.05 ^c | 0.35 ± 0.06 ^c | 0.33 ± 0.05 ^b ^, ^c | 0.79 ± 0.08 ^b ^, ^c | 0.93 ± 0.06 | 0.96 ± 0.08 | 0.80 ± 0.06 ^b | 0.40 ± 0.03 ^b | 0.38 ± 0.05 ^b | 0.47 ± 0.05 ^b | 1.00 ± 0.08 | 1.4 ± 0.12 µM | 0.0105 ± 0.0005 s⁻¹ | 0.3 ± 0.03 µM | EC50 (P. aeruginosa (GRE5288); TSB medium, clinical isolate with MexAB-OprM and MexXY efflux, read-out: EC50): 15.2 ± 1.3 µM; apparent association rate constant, (k on + k off)/K i [2]: 3×10^4 M^1s^-1; fold more potent than homodimers of CAM previously synthesized by Berkov-Zrihen et al. ([2]; direct comparison is not accurate): ~ 10 fold; fold more potent than CAM ([2]; ranking by K i*): 3 fold
